# According to patent US9173917B2, “Methods for reducing oxidative stress in a cell with a sulfhydryl protected glutathione prodrug” (Max International, LLC, priority 2003, dated 2015):
# Entries after “also recorded” stand apart in the source; their conditions may differ.
# What was measured:
# [1] = test system: ACP-induced hepatotoxicity; assay: Protection from ACP-induced hepatotoxicity in mice (plasma ALT levels); format: in vivo, Male Swiss-Webster mice
# Description: Male Swiss-Webster mice weighing 24-34 g were administered ACP [360 mg (or 2.45 mmol)/kg, i.p.].
# In protocol 4′B, a priming dose of the prodrug (1.25 mmole/kg, i.p.) was administered 60 min prior to ACP followed by a subsequent dose (2.50 mmol/kg) 30 min post-ACP.
# In protocol 3′B, the pre- and post-ACP doses were reversed.
# In protocol 1, a single dose of drug was administered 30 min post-ACP.
# Protocol 1′ is identical to 3′B except that the pH of the injection solution was not adjusted. In the B series, the pH of the injection solution was adjusted to neutrality with dilute, aqueous NaOH or HCl
# [2] = unlike GSH or its carboxy esters with free -SH groups that are subject to oxidation; refs (9, 17); cited from earlier work
compound,measurement,setting,value
N[C@H](CSSC[C@H](NC(=O)CC[C@H](N)C(=O)O)C(=O)NCC(=O)O)C(=O)O [D-CySSG],hepatoprotection against ACP toxicity,"[1]; FIG. 1, mouse model, protocol 4'B",lack of significant activity; also recorded: not hepatoprotective; also recorded: lack of hepatoprotection
same,plasma alanine aminotransferase (ALT) levels of ACP-treated mice,"[1]; FIG. 1, protocol 4'B: prodrug 1.25 mmole/kg i.p. 60 min prior to ACP, 2.50 mmol/kg 30 min post-ACP, ACP 360 mg/kg i.p., ALT 24 hrs post-ACP",statistically similar to that for ACP alone; also recorded: comparable to that for ACP alone
"N[C@@H](CCC(=O)N[C@@H](CSSC[C@H](N)C(=O)O)C(=O)NCC(=O)O)C(=O)O [L-CySSG, L-cysteine-GSH disulfide]",stability,[2],stable
"CCOC(=O)CNC(=O)C(CSC(C)=O)NC(=O)CCC(N)C(=O)O (stereo not shown) [S-Ac-GSH-OEt, S-acetylglutathione ethyl ester]",usefulness for treating/preventing oxidative stress in the mouse model,"[1]; FIGS. 1, 3 and 4",useful for treating oxidative stress
